# Values quoted from earlier work as cited in patent US20170027865A1, “Dry Pharmaceutical Compositions for Topical Delivery of Oral Medications, Nasal Delivery and to Treat Ear Disorders” (CMPD LICENSING LLC, priority 2013, published 2017).
# Like-named read-outs stand apart in the source and are kept apart here.
# Legend:
# [1] = tested on: Paracoccidioides brasiliensis
# Bacteroides fragilis = settings: Gram: anaer
# Clostridium difficile = settings: Gram: anaer
# Chlamydia pneumoniae = settings: Gram: n/a
# Chlamydia trachomatis = settings: Gram: n/a
# Mycoplasma pneumoniae = settings: Gram: n/a
# Acinetobacter baumannii = settings: Gram: neg
# [2] = tested on: Acinetobacter calcoaceticus; settings: Gram: neg
# Acinetobacter lwoffii = settings: Gram: neg
# Bordetella pertussis = settings: Gram: neg
# Campylobacter jejuni = settings: Gram: neg
# Citrobacter diversus = settings: Gram: neg
# Citrobacter freundii = settings: Gram: neg
# Enterobacter aerogenes = settings: Gram: neg
# Enterobacter cloacae = settings: Gram: neg
# Enterobacter sakazakii = settings: Gram: neg
# Escherichia coli = settings: Gram: neg
# Haemophilus ducreyi = settings: Gram: neg
# Haemophilus influenzae = settings: Gram: neg
# [3] = tested on: Haemophilus parainfluenzae; settings: Gram: neg
# [4] = tested on: Klebsiella (Calymmatobacterium) granulomatis; settings: Gram: neg
# Klebsiella oxytoca = settings: Gram: neg
# Klebsiella pneumoniae = settings: Gram: neg
# Moraxella catarrhalis = settings: Gram: neg
# Morganella morganii = settings: Gram: neg
# Neisseria gonorrhoeae = settings: Gram: neg
# Neisseria meningitidis = settings: Gram: neg
# Proteus mirabilis = settings: Gram: neg
# Proteus vulgaris = settings: Gram: neg
# Providencia rettgeri = settings: Gram: neg
# Providencia stuartii = settings: Gram: neg
# Pseudomonas aeruginosa = settings: Gram: neg
# Salmonella typhi = settings: Gram: neg
# Serratia marcescens = settings: Gram: neg
# Shigella boydii = settings: Gram: neg
# Shigella dysenteriae = settings: Gram: neg
# Shigella flexneri = settings: Gram: neg
# Shigella sonnei = settings: Gram: neg
# Vibrio cholerae = settings: Gram: neg
# Corynebacterium jeikeium = settings: Gram: pos
# [5] = tested on: Corynebacterium urealyticum; settings: Gram: pos
# Diphtheroids = settings: Gram: pos
# Enterococcus faecalis = settings: Gram: pos
# Enterococcus faecium = settings: Gram: pos
# [6] = tested on: Methicillin Resistant Staph aureus (MRSA); settings: Gram: pos
# Peptostreptococcus = settings: Gram: pos
# [7] = tested on: Staphylococcus aureus (MSSA); settings: Gram: pos
# [8] = tested on: Staphylococcus epidermidis; settings: Gram: pos
# Streptococcus agalactiae = settings: Gram: pos
# Streptococcus pneumoniae = settings: Gram: pos
# Streptococcus pyogenes = settings: Gram: pos
# [9] = tested on: Viridans group streptococci; settings: Gram: pos
# Bartonella bacilliformis = settings: Gram: neg
# Pseudomonas fluorescens = settings: Gram: neg
structure (smiles),measurement,setting,value
"C[C@@H]1[C@H](O)[C@@H](C)/C=C/C=C/C=C/C=C/C=C/C=C/C=C/[C@H](O[C@@H]2O[C@H](C)[C@@H](O)[C@H](N)[C@@H]2O)C[C@@H]2O[C@](O)(C[C@@H](O)C[C@@H](O)[C@H](O)CC[C@@H](O)C[C@@H](O)CC(=O)O[C@H]1C)C[C@H](O)[C@H]2C(=O)O [Amphotericin, amphotericin B]",Expected coverage,Aspergillus flavus,yes
same,Expected coverage,Aspergillus fumigatus,yes
same,Expected coverage,Aspergillus niger,yes
same,Expected coverage,Aspergillus terreus,yes
same,Expected coverage,Blastomyces dermatitidis,yes
same,Expected coverage,Candida species,yes
same,Expected coverage,Coccidioides immitis,yes
same,Expected coverage,Cryptococcus neoformans,yes
same,Expected coverage,Histoplasma capsulatum,yes
same,Expected coverage,Leishmania donovani,yes
same,Expected coverage,Leishmania infantum,yes
same,Expected coverage,[1],yes
"CO/N=C(\C(=O)N[C@@H]1C(=O)N2C(C(=O)O)=C(CSc3nc(=O)c(=O)[nH]n3C)CS[C@H]12)c1csc(N)n1 [Ceftriaxone, ceftriaxone]",Expected coverage,Bacteroides fragilis,yes
same,Expected coverage,Clostridium difficile,no
same,Expected coverage,"Clostridium perfringens; Clostridium perfringens, Gram: anaer",yes
same,Expected coverage,Chlamydia pneumoniae,no
same,Expected coverage,"Chlamydia psittaci; Chlamydia psittaci, Gram: n/a",no
same,Expected coverage,Chlamydia trachomatis,no
same,Expected coverage,Mycoplasma pneumoniae,no
same,Expected coverage,Acinetobacter baumannii,no
same,Expected coverage,[2],no
same,Expected coverage,Acinetobacter lwoffii,no
same,Expected coverage,Bordetella pertussis,no
same,Expected coverage,Campylobacter jejuni,no
same,Expected coverage,Citrobacter diversus,yes
same,Expected coverage,Citrobacter freundii,yes
same,Expected coverage,Enterobacter aerogenes,yes
same,Expected coverage,Enterobacter cloacae,yes
same,Expected coverage,Enterobacter sakazakii,yes
same,Expected coverage,Escherichia coli,yes
same,Expected coverage,"Francisella tularensis; Francisella tularensis, Gram: neg",no
same,Expected coverage,Haemophilus ducreyi,yes
same,Expected coverage,Haemophilus influenzae,yes
same,Expected coverage,[3],yes
same,Expected coverage,[4],yes
same,Expected coverage,Klebsiella oxytoca,yes
same,Expected coverage,Klebsiella pneumoniae,yes
same,Expected coverage,"Legionella pneumophila; Legionella pneumophila, Gram: neg",no
same,Expected coverage,Moraxella catarrhalis,yes
same,Expected coverage,Morganella morganii,yes
same,Expected coverage,Neisseria gonorrhoeae,yes
same,Expected coverage,Neisseria meningitidis,yes
same,Expected coverage,Proteus mirabilis,yes
same,Expected coverage,Proteus vulgaris,yes
same,Expected coverage,Providencia rettgeri,yes
same,Expected coverage,Providencia stuartii,yes
same,Expected coverage,Pseudomonas aeruginosa,no
same,Expected coverage,"Rickettsiae; Rickettsiae, Gram: neg",no
same,Expected coverage,Salmonella typhi,yes
same,Expected coverage,Serratia marcescens,yes
same,Expected coverage,Shigella boydii,yes
same,Expected coverage,Shigella dysenteriae,yes
same,Expected coverage,Shigella flexneri,yes
same,Expected coverage,Shigella sonnei,yes
same,Expected coverage,Vibrio cholerae,no
same,Expected coverage,"Yersinia pestis; Yersinia pestis, Gram: neg",no
same,Expected coverage,Corynebacterium jeikeium,no
same,Expected coverage,[5],no
same,Expected coverage,Diphtheroids,no
same,Expected coverage,Enterococcus faecalis,no
same,Expected coverage,Enterococcus faecium,no
same,Expected coverage,[6],no
same,Expected coverage,Peptostreptococcus,yes
same,Expected coverage,[7],yes
same,Expected coverage,[8],yes
same,Expected coverage,Streptococcus agalactiae,yes
same,Expected coverage,Streptococcus pneumoniae,yes
same,Expected coverage,Streptococcus pyogenes,yes
same,Expected coverage,[9],yes
"OC(Cn1cncn1)(Cn1cncn1)c1ccc(F)cc1F [Fluconazole, fluconazole]",Expected coverage,Aspergillus flavus,yes
same,Expected coverage,Aspergillus fumigatus,yes
same,Expected coverage,Blastomyces dermatitidis,yes
same,Expected coverage,Candida species,yes
same,Expected coverage,Coccidioides immitis,yes
same,Expected coverage,Cryptococcus neoformans,yes
same,Expected coverage,Histoplasma capsulatum,yes
"CN[C@H](CC(C)C)C(=O)N[C@H]1C(=O)N[C@@H](CC(N)=O)C(=O)N[C@H]2C(=O)N[C@H]3C(=O)N[C@H](C(=O)N[C@H](C(=O)O)c4cc(O)cc(O)c4-c4cc3ccc4O)[C@H](O)c3ccc(c(Cl)c3)Oc3cc2cc(c3O[C@@H]2O[C@H](CO)[C@@H](O)[C@H](O)[C@H]2O[C@H]2C[C@](C)(N)[C@H](O)[C@H](C)O2)Oc2ccc(cc2Cl)[C@H]1O [Vancomycin, vancomycin]",Expected coverage,Bacteroides fragilis,no
same,Expected coverage,Clostridium difficile,yes
same,Expected coverage,Clostridium perfringens,no
same,Expected coverage,Chlamydia pneumoniae,no
same,Expected coverage,Chlamydia psittaci,no
same,Expected coverage,Chlamydia trachomatis,no
same,Expected coverage,Mycoplasma pneumoniae,no
same,Expected coverage,Acinetobacter baumannii,no
same,Expected coverage,[2],no
same,Expected coverage,Acinetobacter lwoffii,no
same,Expected coverage,Bartonella bacilliformis,no
same,Expected coverage,Bordetella pertussis,no
same,Expected coverage,Brucella species,no
same,Expected coverage,Campylobacter jejuni,no
same,Expected coverage,Citrobacter diversus,no
same,Expected coverage,Citrobacter freundii,no
same,Expected coverage,Enterobacter aerogenes,no
same,Expected coverage,Enterobacter cloacae,no
same,Expected coverage,Enterobacter sakazakii,no
same,Expected coverage,Escherichia coli,no
same,Expected coverage,Francisella tularensis,no
same,Expected coverage,Haemophilus ducreyi,no
same,Expected coverage,Haemophilus influenzae,no
same,Expected coverage,[3],no
same,Expected coverage,[4],no
same,Expected coverage,Klebsiella oxytoca,no
same,Expected coverage,Klebsiella pneumoniae,no
same,Expected coverage,Legionella pneumophila,no
same,Expected coverage,Moraxella catarrhalis,no
same,Expected coverage,Morganella morganii,no
same,Expected coverage,Neisseria gonorrhoeae,no
same,Expected coverage,Neisseria meningitidis,no
same,Expected coverage,Proteus mirabilis,no
same,Expected coverage,Proteus vulgaris,no
same,Expected coverage,Providencia rettgeri,no
same,Expected coverage,Providencia stuartii,no
same,Expected coverage,Pseudomonas aeruginosa,no
same,Expected coverage,Pseudomonas fluorescens,no
same,Expected coverage,Rickettsiae,no
same,Expected coverage,Salmonella typhi,no
same,Expected coverage,Serratia marcescens,no
same,Expected coverage,Shigella boydii,no
same,Expected coverage,Shigella dysenteriae,no
same,Expected coverage,Shigella flexneri,no
same,Expected coverage,Shigella sonnei,no
same,Expected coverage,Vibrio cholerae,no
same,Expected coverage,Yersinia pestis,no
same,Expected coverage,Corynebacterium jeikeium,yes
same,Expected coverage,[5],yes
same,Expected coverage,Diphtheroids,yes
same,Expected coverage,Enterococcus faecalis,yes
same,Expected coverage,[6],yes
same,Expected coverage,Peptostreptococcus,yes
same,Expected coverage,[7],yes
same,Expected coverage,[8],yes
same,Expected coverage,Streptococcus agalactiae,yes
same,Expected coverage,Streptococcus pneumoniae,yes
same,Expected coverage,Streptococcus pyogenes,yes
same,Expected coverage,[9],yes
